{"source": "paper PMC11864979", "about": "“First-in-class ultralong-target-residence-time p38α inhibitors as a mitosis-targeted therapy for colorectal cancer” (Nature Cancer, 2025)", "experiment_in_all_cases": "selectivity profiling in a panel of 340 wild-type kinases (Reaction Biology Europe)", "type_in_all_cases": "binding", "key": {"340 wild-type kinases [1]": {"biological_target": "T1, 340 wild-type kinases (Homo sapiens, UniProt P10398, Y301D/Y302D)", "T1 construct": "purchased Reaction Biology Europe", "T1 sequence (P10398 1-606 Y301D/Y302D)": "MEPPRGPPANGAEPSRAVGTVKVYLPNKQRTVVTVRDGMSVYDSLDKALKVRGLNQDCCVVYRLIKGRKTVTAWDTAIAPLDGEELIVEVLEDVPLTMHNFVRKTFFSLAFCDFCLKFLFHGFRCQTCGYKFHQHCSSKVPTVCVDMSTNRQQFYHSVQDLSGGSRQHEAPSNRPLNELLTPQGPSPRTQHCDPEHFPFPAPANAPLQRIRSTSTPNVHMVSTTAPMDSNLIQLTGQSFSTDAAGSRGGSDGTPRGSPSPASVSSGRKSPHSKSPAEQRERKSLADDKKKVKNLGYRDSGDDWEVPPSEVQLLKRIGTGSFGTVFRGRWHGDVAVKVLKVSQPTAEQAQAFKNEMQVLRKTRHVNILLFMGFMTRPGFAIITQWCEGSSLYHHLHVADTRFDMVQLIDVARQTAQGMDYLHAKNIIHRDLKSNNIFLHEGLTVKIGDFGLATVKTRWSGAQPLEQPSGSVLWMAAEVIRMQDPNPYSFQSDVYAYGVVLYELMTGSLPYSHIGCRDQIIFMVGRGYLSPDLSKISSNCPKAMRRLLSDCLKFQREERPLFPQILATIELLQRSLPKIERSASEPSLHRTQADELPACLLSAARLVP"}, "340 wild-type kinases [2]": {"biological_target": "T2, 340 wild-type kinases (Homo sapiens, UniProt P27448)", "T2 construct": "purchased Reaction Biology Europe", "T2 sequence (P27448 whole entry)": "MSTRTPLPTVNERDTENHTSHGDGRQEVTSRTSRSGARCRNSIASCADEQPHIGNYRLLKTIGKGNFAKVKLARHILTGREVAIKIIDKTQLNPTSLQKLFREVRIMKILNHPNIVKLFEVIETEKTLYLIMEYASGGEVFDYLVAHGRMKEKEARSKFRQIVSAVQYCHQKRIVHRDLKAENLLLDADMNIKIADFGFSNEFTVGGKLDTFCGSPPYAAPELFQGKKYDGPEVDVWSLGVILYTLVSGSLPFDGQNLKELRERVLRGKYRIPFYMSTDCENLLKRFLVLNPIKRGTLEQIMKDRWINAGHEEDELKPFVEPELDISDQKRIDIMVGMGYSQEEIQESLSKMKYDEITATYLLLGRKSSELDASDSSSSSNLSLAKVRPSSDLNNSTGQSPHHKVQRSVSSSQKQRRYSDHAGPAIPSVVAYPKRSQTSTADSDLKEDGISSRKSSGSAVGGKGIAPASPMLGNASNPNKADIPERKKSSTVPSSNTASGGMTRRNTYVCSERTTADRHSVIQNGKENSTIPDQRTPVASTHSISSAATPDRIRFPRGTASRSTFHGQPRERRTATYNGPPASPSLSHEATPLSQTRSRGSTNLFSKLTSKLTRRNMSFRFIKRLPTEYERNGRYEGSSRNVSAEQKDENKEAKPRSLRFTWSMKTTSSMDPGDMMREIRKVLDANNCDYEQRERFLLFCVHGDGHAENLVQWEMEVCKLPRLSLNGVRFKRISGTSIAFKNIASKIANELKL"}, "340 wild-type kinases [3]": {"biological_target": "T3, 340 wild-type kinases (Homo sapiens, UniProt Q9UF33)", "T3 construct": "purchased Reaction Biology Europe", "T3 sequence (Q9UF33 23-1036)": "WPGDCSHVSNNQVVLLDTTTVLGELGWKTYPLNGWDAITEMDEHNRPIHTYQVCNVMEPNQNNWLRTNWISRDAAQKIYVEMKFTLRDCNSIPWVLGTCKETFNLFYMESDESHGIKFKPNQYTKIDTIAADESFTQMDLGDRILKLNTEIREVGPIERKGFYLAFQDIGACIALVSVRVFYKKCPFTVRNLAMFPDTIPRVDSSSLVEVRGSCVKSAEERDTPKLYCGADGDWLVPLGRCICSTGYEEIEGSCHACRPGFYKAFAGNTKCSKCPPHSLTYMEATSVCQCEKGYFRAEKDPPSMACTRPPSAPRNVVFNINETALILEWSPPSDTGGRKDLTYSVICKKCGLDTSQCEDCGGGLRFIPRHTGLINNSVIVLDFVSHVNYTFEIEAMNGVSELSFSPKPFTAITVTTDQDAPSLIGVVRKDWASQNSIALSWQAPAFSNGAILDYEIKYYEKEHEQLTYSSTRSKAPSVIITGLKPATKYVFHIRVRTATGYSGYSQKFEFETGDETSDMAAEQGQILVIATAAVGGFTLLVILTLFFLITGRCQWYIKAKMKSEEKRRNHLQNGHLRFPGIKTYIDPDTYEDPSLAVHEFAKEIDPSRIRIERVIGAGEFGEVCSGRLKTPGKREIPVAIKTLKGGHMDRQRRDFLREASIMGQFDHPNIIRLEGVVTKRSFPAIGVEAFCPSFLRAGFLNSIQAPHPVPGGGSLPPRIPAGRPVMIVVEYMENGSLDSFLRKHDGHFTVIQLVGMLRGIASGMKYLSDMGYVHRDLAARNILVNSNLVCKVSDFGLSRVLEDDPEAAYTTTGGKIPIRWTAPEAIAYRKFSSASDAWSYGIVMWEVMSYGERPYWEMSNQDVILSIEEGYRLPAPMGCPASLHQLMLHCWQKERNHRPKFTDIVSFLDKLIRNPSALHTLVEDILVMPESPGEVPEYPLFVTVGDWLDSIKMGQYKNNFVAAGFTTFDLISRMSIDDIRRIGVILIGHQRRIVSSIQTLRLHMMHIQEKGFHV"}, "340 wild-type kinases [4]": {"biological_target": "T4, 340 wild-type kinases (Homo sapiens, UniProt Q16513)", "T4 construct": "purchased Reaction Biology Europe", "T4 sequence (Q16513 whole entry)": "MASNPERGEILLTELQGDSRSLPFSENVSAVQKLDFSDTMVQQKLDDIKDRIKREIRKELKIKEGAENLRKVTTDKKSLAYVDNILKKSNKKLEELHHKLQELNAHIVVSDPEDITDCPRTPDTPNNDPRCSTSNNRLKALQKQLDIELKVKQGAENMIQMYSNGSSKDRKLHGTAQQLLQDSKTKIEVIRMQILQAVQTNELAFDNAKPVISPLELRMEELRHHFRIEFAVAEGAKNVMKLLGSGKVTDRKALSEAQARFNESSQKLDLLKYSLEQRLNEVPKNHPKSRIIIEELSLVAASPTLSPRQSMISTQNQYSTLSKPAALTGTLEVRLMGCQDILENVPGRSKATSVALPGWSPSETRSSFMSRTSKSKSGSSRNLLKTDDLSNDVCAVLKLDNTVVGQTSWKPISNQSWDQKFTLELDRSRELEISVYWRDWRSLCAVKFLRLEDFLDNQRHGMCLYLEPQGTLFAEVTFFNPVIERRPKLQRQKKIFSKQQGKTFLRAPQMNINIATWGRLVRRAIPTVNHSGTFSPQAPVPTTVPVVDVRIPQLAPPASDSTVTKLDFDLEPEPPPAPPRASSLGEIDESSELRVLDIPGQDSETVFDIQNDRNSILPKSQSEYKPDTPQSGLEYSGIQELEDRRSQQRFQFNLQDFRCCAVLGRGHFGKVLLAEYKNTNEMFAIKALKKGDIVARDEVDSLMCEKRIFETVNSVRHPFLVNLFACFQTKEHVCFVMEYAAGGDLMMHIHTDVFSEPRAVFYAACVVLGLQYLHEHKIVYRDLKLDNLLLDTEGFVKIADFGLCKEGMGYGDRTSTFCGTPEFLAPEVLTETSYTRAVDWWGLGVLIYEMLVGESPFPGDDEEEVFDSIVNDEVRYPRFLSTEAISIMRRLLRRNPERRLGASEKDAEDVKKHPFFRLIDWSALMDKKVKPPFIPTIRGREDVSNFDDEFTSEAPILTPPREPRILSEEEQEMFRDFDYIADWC"}, "340 wild-type kinases [5]": {"biological_target": "T5, 340 wild-type kinases (Homo sapiens, UniProt Q15418)", "T5 construct": "purchased Reaction Biology Europe", "T5 sequence (Q15418 whole entry)": "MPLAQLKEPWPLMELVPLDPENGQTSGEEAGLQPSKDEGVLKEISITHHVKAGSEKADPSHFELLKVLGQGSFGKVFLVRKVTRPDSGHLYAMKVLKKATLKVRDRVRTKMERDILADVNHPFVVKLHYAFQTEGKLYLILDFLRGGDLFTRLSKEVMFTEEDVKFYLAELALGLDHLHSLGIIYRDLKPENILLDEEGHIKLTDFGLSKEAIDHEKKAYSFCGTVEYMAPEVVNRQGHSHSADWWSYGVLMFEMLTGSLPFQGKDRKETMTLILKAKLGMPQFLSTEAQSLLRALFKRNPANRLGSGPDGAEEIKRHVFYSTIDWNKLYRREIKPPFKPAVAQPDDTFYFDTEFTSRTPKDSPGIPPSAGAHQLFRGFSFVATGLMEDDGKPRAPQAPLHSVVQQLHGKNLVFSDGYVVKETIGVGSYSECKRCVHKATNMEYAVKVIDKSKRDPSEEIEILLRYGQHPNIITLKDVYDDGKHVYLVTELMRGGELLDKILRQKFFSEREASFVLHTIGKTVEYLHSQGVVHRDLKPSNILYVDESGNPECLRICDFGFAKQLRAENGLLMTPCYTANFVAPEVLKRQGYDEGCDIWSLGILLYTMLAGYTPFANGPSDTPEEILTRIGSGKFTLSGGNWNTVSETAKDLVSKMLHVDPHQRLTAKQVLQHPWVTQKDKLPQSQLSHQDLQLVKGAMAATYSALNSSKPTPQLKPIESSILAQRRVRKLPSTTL"}, "340 wild-type kinases [6]": {"biological_target": "T6, 340 wild-type kinases (Homo sapiens, UniProt Q9H2X6)", "T6 construct": "purchased Reaction Biology Europe", "T6 sequence (Q9H2X6 whole entry)": "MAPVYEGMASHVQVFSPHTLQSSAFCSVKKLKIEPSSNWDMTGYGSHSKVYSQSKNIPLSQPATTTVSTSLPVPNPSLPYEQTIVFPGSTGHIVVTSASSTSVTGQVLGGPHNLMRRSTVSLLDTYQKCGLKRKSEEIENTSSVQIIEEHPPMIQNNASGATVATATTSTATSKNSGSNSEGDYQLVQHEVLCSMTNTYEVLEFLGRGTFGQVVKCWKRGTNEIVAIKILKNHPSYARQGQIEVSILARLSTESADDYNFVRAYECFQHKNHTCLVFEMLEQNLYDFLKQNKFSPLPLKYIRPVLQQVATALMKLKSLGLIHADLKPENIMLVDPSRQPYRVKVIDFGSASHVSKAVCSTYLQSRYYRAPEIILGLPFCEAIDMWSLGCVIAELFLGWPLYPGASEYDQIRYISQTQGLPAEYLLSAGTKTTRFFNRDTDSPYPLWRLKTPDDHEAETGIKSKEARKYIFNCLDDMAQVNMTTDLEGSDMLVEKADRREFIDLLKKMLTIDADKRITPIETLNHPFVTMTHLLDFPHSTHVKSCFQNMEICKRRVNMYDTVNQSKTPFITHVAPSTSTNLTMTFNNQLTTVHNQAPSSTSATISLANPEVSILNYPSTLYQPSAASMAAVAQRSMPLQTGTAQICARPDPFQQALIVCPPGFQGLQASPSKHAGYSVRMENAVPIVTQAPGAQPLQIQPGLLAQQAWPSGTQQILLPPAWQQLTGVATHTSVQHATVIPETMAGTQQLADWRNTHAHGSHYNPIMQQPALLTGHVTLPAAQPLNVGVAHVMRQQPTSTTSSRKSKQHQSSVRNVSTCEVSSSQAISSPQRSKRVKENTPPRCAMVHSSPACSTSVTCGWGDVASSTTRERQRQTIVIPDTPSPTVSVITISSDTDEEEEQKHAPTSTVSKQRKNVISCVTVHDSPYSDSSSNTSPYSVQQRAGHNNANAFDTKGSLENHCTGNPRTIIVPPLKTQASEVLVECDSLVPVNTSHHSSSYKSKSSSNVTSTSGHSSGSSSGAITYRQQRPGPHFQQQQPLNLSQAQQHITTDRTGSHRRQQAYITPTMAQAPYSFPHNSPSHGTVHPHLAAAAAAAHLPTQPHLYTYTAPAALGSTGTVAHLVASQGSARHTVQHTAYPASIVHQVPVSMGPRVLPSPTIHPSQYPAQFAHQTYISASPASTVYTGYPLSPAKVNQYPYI"}, "340 wild-type kinases [7]": {"biological_target": "T7, 340 wild-type kinases (Homo sapiens, UniProt Q13043)", "T7 construct": "purchased Reaction Biology Europe", "T7 sequence (Q13043 1-487)": "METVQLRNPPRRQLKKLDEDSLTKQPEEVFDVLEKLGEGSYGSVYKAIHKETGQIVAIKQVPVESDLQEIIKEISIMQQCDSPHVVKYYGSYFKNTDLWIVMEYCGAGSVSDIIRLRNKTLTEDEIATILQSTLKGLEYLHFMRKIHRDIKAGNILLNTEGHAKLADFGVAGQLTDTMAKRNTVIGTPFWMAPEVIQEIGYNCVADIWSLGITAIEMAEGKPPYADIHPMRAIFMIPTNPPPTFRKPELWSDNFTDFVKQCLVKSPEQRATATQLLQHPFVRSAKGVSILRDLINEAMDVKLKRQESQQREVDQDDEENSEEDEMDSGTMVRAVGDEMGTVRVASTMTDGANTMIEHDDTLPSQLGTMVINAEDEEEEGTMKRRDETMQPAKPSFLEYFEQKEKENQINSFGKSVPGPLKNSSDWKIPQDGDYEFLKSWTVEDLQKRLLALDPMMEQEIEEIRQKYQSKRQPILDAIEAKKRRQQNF"}}, "note": "Read-outs that look alike come from different tables or passages of the source."}
{"smiles": "CNC(=O)c1ccc2c(c1)C(=O)c1ccc(Nc3ccc(F)c(NC(=O)C4CC4)c3)cc1CC2", "note": "[Compound 2015]", "values": [{"measurement": "remaining activity at 0.2 µM", "setting": "340 wild-type kinases [1]; 0.2 µM 2015, read-out: ARAF YDYD residual activity", "value": 98.8, "unit": "%"}, {"measurement": "remaining activity at 1 µM", "setting": "340 wild-type kinases [1]; 1 µM 2015, read-out: ARAF YDYD residual activity", "value": 106, "unit": "%"}, {"measurement": "remaining activity at 0.2 µM", "setting": "340 wild-type kinases [1]; ARAF YDYD, 0.2 µM, read-out: residual activity", "value": 98.8, "unit": "%"}, {"measurement": "remaining activity at 1 µM", "setting": "340 wild-type kinases [1]; ARAF YDYD, 1 µM, read-out: residual activity", "value": 106, "unit": "%"}, {"measurement": "remaining activity at 0.2 µM", "setting": "340 wild-type kinases [2]; 0.2 µM 2015, read-out: MARK3 residual activity", "value": 117, "unit": "%"}, {"measurement": "remaining activity at 1 µM", "setting": "340 wild-type kinases [2]; 1 µM 2015, read-out: MARK3 residual activity", "value": 100, "unit": "%"}, {"measurement": "remaining activity at 0.2 µM", "setting": "340 wild-type kinases [2]; MARK3, 0.2 µM, read-out: residual activity", "value": 117, "unit": "%"}, {"measurement": "remaining activity at 1 µM", "setting": "340 wild-type kinases [2]; MARK3, 1 µM, read-out: residual activity", "value": 100, "unit": "%"}, {"measurement": "remaining activity at 0.2 µM", "setting": "340 wild-type kinases [3]; 0.2 µM 2015, read-out: EPHA6 residual activity", "value": 87.2, "unit": "%"}, {"measurement": "remaining activity at 1 µM", "setting": "340 wild-type kinases [3]; 1 µM 2015, read-out: EPHA6 residual activity", "value": 85.9, "unit": "%"}, {"measurement": "remaining activity at 0.2 µM", "setting": "340 wild-type kinases [3]; EPHA6, 0.2 µM, read-out: residual activity", "value": 87.2, "unit": "%"}, {"measurement": "remaining activity at 1 µM", "setting": "340 wild-type kinases [3]; EPHA6, 1 µM, read-out: residual activity", "value": 85.9, "unit": "%"}, {"measurement": "remaining activity at 0.2 µM", "setting": "340 wild-type kinases [4]; 0.2 µM 2015, read-out: PRK2 residual activity", "value": 89.2, "unit": "%"}, {"measurement": "remaining activity at 1 µM", "setting": "340 wild-type kinases [4]; 1 µM 2015, read-out: PRK2 residual activity", "value": 91.1, "unit": "%"}, {"measurement": "remaining activity at 0.2 µM", "setting": "340 wild-type kinases [4]; PRK2, 0.2 µM, read-out: residual activity", "value": 89.2, "unit": "%"}, {"measurement": "remaining activity at 1 µM", "setting": "340 wild-type kinases [4]; PRK2, 1 µM, read-out: residual activity", "value": 91.1, "unit": "%"}, {"measurement": "remaining activity at 0.2 µM", "setting": "340 wild-type kinases [5]; 0.2 µM 2015, read-out: RPS6KA1 residual activity", "value": 100, "unit": "%"}, {"measurement": "remaining activity at 1 µM", "setting": "340 wild-type kinases [5]; 1 µM 2015, read-out: RPS6KA1 residual activity", "value": 94.3, "unit": "%"}, {"measurement": "remaining activity at 0.2 µM", "setting": "340 wild-type kinases [5]; RPS6KA1, 0.2 µM, read-out: residual activity", "value": 100, "unit": "%"}, {"measurement": "remaining activity at 1 µM", "setting": "340 wild-type kinases [5]; RPS6KA1, 1 µM, read-out: residual activity", "value": 94.3, "unit": "%"}, {"measurement": "remaining activity at 0.2 µM", "setting": "340 wild-type kinases [6]; 0.2 µM 2015, read-out: HIPK2 residual activity", "value": 93.7, "unit": "%"}, {"measurement": "remaining activity at 1 µM", "setting": "340 wild-type kinases [6]; 1 µM 2015, read-out: HIPK2 residual activity", "value": 97.9, "unit": "%"}, {"measurement": "remaining activity at 0.2 µM", "setting": "340 wild-type kinases [6]; HIPK2, 0.2 µM, read-out: residual activity", "value": 93.7, "unit": "%"}, {"measurement": "remaining activity at 1 µM", "setting": "340 wild-type kinases [6]; HIPK2, 1 µM, read-out: residual activity", "value": 97.9, "unit": "%"}, {"measurement": "remaining activity at 0.2 µM", "setting": "340 wild-type kinases [7]; 0.2 µM 2015, read-out: MST1 residual activity", "value": 98.1, "unit": "%"}, {"measurement": "remaining activity at 1 µM", "setting": "340 wild-type kinases [7]; 1 µM 2015, read-out: MST1 residual activity", "value": 100, "unit": "%"}, {"measurement": "remaining activity at 0.2 µM", "setting": "340 wild-type kinases [7]; MST1, 0.2 µM, read-out: residual activity", "value": 98.1, "unit": "%"}, {"measurement": "remaining activity at 1 µM", "setting": "340 wild-type kinases [7]; MST1, 1 µM, read-out: residual activity", "value": 100, "unit": "%"}]}
